Assay [1] has as its system human hair follicles in growth phase (anagen). Put plainly: Human hair follicle growth assay (hair follicle culture model). The format is cell-based. The settings on record: follicle length day 6 minus day 0, statistically significant, read-out: hair growth inhibition compared to the control. The procedure: Human hair follicles in growth phase (anagen) were isolated from face-lift tissue (obtained from plastic surgeons). The skin was sliced into thin strips exposing 2-3 rows of follicles that could readily be dissected. Follicles were placed into William's E medium (Life Technologies, Gaithersburg, Md.) supplemented with 2 mM L-glutamine, 10 µg/ml insulin, 10 ng/ml hydrocortisone, and an antibiotic/antimicotic mixture as described in Philpott et al. (1990) J. Cell Sci. 97 (Pt3):463-71. The follicles were incubated in 24-well plates (1 follicle/well) at 37° C. in an atmosphere of 5% CO2 and 100% humidity for different periods of time (Philpott et al. (1990) supra). The length of hair follicle was assessed using an image analysis software system. To determine the effect of molecules modulating TRPM8/TRPA1 activity on hair growth, hair follicles were incubated with icilin (Tocris Bioscience) and L-Menthol, L-menthyl lactate (Sigma). Hair follicle images were taken in the 24-well plates under the dissecting scope under a power of 20×. Hair follicle length was measured on day 0 (day follicles were placed in culture) and again on day 6. The growth of hair fiber was calculated by the subtracting the follicle length on day 0 from that determined on day 6. To identify whether modulation of TRPM8 and TRPA1 activity could affect hair growth, their agonists were tested in the hair follicle culture model. Hair follicle treatment with 10 uM of menthol, icilin, and menthyl lactate, caused statistically significant hair growth inhibition by 40%, 45% and 60% respectively, compared to the control. […] Thus, activation of either TRPM8 or TRPA1 by a cooling agent leads to a significant reduction of hair growth rate in vitro.

Assay [2] deals with human epidermal melanocytes. Kind of assay: Western blot of melanogenic proteins in human epidermal melanocytes culture. The format is cell-based. The settings on record: 10 uM, 48 hours. As to the method:
Total cellular proteins of human melanocytes were harvested in a lysis buffer (Total protein extraction kit; CHEMICON International, Inc). Twenty […]g protein were loaded per lane, separated by 10% sodium dodecyl sulfate polyacrylamide gel electrophoresis, and transferred to nitrocellulose membrane at 100 V for 1 h. Following overnight blocking with 5% nonfat dry milk/bovine serum albumin (BSA) in Tris-phosphate-buffered saline (PBS) (0.5% Tween-20 in PBS) at 4° C., the membrane was incubated overnight with a monoclonal antibody against either tyrosinase or tyrosinase-related protein-1 or actin at a dilution of 1:1000. […] After extensive washing the membrane was incubated for 1 min with the enzyme-linked chemiluminescence Western Blotting Detection Reagent (Amersham, Buckinghamshire, U.K.), and bands were detected on preflashed Kodak X-Omat film and developed after several seconds of exposure.
To determine whether a TRPM8 and TRPA1 agonist can affect pigment producing activity of the melanocytes, expression of tyrosinase was analyzed in the hair follicles treated with 10 uM icilin by immunohistochemistry. […] A decrease in tyrosinase and tyrosinase-related protein (TRP)-1 expression levels were observed 48 hours after 10 uM icilin treatment, compared to the control, as determined by Western blot analysis. […]
For orientation: Immunoblotting shows a protein as a band on a membrane.

In assay [3] the test system is tyrosinase expression in hair follicles. Kind of assay: Tyrosinase immunohistochemistry in treated hair follicles. In kind it is cell-based, human. The settings on record: 10 uM. As to the method:
For the immunodetection of melanogenic proteins, sections were incubated with either mouse monoclonal antibody against human tyrosinase or chicken monoclonal antibody against human p-mel 17 (Neomarker and Zymed, respectively; 1:100, overnight), followed by incubation with TRITC-labeled […] (Jackson ImmunoResearch; 45 min, 37° C.) and FITC-labeled goat anti-chicken IgG, respectively. Next, sections were counterstained with Hoechst 33342 (1:300, 15 min) for identification of cell nuclei, and mounted using VectaShield (Vector Laboratories). All sections were examined under a Olympus BX 60 fluorescent microscope and photodocumented with the help of a digital image analysis system (CoolSnap™ cooled CCD camera, Alpha Innotech) To determine whether a TRPM8 and TRPA1 agonist can affect pigment producing activity of the melanocytes, expression of tyrosinase was analyzed in the hair follicles treated with 10 uM icilin by immunohistochemistry. Tyrosinase expression was decreased in treated hair follicles, compared to the control. In addition, the effects of icilin on melanogenic protein expression were tested in human epidermal melanocytes culture. A decrease in tyrosinase and tyrosinase-related protein (TRP)-1 expression levels were observed 48 hours after 10 uM icilin treatment, compared to the control, as determined by Western blot analysis. […]

In assay [4] the test system is Ki-67 immunoreactivity in the hair matrix and outer root sheath. Put plainly: Ki-67 immunofluorescence for proliferating cells in cultured hair follicles. In kind it is cell-based, human. The settings on record: hair follicle treatment, concentration-dependent. The procedure:
For detection of proliferating cells the indirect immunofluorescence protocol using rabbit monoclonal antibody against Ki-67. Eight […]m hair follicle sections were fixed in formalin and postfixed in ethanol/acetic acid. […] Counterstaining was performed using HOECHST 33342 dye ([…] in PBS; 10 minutes). Each phase was interspersed by a washing step (three times) in PBS. Finally, sections were mounted using VectaShield Vector Laboratories). All sections were examined under a Olympus BX 60 fluorescent microscope and photodocumented with the help of a digital image analysis system (CoolSnap™ cooled CCD camera, Alpha Innotech) To identify whether modulation of TRPM8 and TRPA1 activity could affect hair growth, their agonists were tested in the hair follicle culture model. Hair follicle treatment with 10 uM of menthol, icilin, and menthyl lactate, caused statistically significant hair growth inhibition by 40%, 45% and 60% respectively, compared to the control. […] Thus, activation of either TRPM8 or TRPA1 by a cooling agent leads to a significant reduction of hair growth rate in vitro.

As a reminder, the inhibition is the percentage by which the read-out fell short of the control.

For the compound `O=C1NC(c2cccc([N+](=O)[O-])c2)=CCN1c1ccccc1O` [icilin, 1-(2-Hydroxyphenyl)-4-(3-nitrophenyl)-1,2,3,6-tetrahydropyrimidin-2-one], the inhibition at 10 µM in assay [1] came to 45%. Also, in assay [2], the “tyrosinase expression level compared to the control” value was “decrease” and the “tyrosinase-related protein (TRP)-1 expression level compared to the control” value was “decrease”. Also, the “tyrosinase expression in treated hair follicles compared to the control” value in assay [3] is “decreased”. In addition, the “cell proliferation (Ki-67 immunoreactivity in hair matrix and outer root sheath)” value in assay [4] is “inhibition of cell proliferation in a concentration-dependent manner”.

Regarding `CC1CCC(C(C)C)C(O)C1` (stereo not shown) [menthol], the inhibition at 10 µM in assay [1] is 40%.

Regarding `CC1CCC(C(C)C)C(OC(=O)C(C)O)C1` (stereo not shown) [menthyl lactate], in assay [1], the inhibition at 10 µM turned out to be 60%.

The values above are taken from patent US7727516B2, “Reduction of hair growth” (The Procter & Gamble Company, priority 2006, dated 2010).
